The values that follow come from article PMC6486640, “The ATPase mechanism of UvrA2 reveals the distinct roles of proximal and distal ATPase sites in nucleotide excision repair” (Nucleic Acids Research, 2019).

Data set [1] deals with T1, T. maritima UvrA Δ117-399 (Thermotoga maritima, UniProt Q9WYV0, DEL117-399).
T1 construct: internal deletion of 117-399; preparation in Supplementary Data
Kind of data set: X-ray crystal structure, […] Å. The note with it: ADP in proximal and distal sites. Format: binding.

The next data set has as its target T2, UvrA2 (Geobacillus stearothermophilus, UniProt A0ACH1EC70).
T2 construct: gene uvrA; pET28a-NHis-UvrA, N-terminal His tag, expressed in E. coli Rosetta (DE3) pLysS; heat-treated to remove ADP; homodimer with proximal and distal ATPase sites per monomer
Kind of data set: global fit of pre-steady state Pi release (MDCC-PBP stopped-flow), KinTek Explorer. Format: biochemical. The note with it: no DNA; pH 7.4, 5 mM MgCl2, 40°C; distal (high-affinity) sites; best-fit model value; proximal sites are a weaker second site. An excerpt:
global fit of pre-steady state Pi release (MDCC-PBP stopped-flow), KinTek Explorer on UvrA2

For data set [2], the target named is UvrA2 (UvrA dimer, wild type) (Geobacillus stearothermophilus, UniProt A0ACH1EC70 1-952). The data set can be described thus: fluorescence anisotropy; 0-250 nM UvrA2, 7.5 nM DNA; Equilibrium fluorescence anisotropy, 7.5 nM DNA, 0-250 nM UvrA2; anisotropy buffer and temperature not in the material (other assays of the paper: 20 mM Tris-HCl pH 7.4, 0.15 M NaCl, 5% glycerol, 5 mM MgCl2, 5 mM DTT, 40 C). The note with it: protein: recombinant, tags: N-terminal His (pET28a-NHis-UvrA), chain copies: 2, blunt. A general note: Fluorescence polarisation rises when a labelled molecule tumbles more slowly, as on binding a larger partner.

T1 sequence (Q9WYV0 other isoform, or with tags, fused parts or gaps DEL117-399): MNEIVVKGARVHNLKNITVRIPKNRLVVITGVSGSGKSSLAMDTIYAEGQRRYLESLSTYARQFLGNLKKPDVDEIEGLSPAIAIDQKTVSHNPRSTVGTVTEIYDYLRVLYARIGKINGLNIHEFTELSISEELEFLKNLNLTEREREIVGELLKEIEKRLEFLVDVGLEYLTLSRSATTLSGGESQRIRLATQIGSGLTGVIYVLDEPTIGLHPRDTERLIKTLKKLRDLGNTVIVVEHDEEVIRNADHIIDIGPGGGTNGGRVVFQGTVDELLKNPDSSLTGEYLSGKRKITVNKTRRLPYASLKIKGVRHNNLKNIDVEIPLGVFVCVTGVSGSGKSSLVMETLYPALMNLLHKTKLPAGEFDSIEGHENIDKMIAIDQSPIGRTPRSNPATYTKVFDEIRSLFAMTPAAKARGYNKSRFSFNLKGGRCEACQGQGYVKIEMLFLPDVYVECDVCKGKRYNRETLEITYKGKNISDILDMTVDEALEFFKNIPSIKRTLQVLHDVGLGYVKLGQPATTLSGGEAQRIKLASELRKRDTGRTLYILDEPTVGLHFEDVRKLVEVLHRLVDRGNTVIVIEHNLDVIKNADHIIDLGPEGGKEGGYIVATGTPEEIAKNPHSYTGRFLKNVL

Turning to `Nc1ncnc2c1ncn2[C@@H]1O[C@H](COP(=O)(O)OP(=O)(O)O)[C@@H](O)[C@H]1O` [ADP], the “X-ray crystal structure, 2.0 Å” value in data set [1] is listed as “the fully ADP-bound structure reported here further supports this hypothesis”.

For `Nc1ncnc2c1ncn2[C@@H]1O[C@H](COP(=O)(O)OP(=O)(O)OP(=O)(O)O)[C@@H](O)[C@H]1O` [ATP], at UvrA2, the Best-fit values worked out at 1 µM.

B1: fluorescein lesion DNA, 50 bp duplex (dsDNA)
DNA 1: CCTGTCAGCTCGTTCTGAGTTCCAGTAGTAATGTGGCCGTAAGTAATCCA
DNA 2: TGGATTACTTACGGCCACATTACTACTGGAACTCAGAACGAGCTGACAGG
modifications: internal fluorescein-dT (iFluorT) at position 26 of strand 1, acts as lesion
On to B1, for which the Kd in data set [2] (label: internal fluorescein (strand 1, T26)) came out at 12 ± 2 nM.

B2: native (undamaged) DNA, 50 bp duplex (dsDNA)
DNA 1: B1 DNA 2
DNA 2: B1 DNA 1
B2: the Kd in data set [2] (label: 5' 6-FAM on strand 1 (template)) was 45 ± 7 nM.

A word on the Kd: it is the equilibrium constant for the complex coming apart.
